Values quoted from earlier work in publication PMC8541945 (Investigational New Drugs, 2021).

Columns and labels:
[1] = system: brain metastases secondary to HR + /HER2- metastatic BC; set-up: method as in earlier work
[2] = system: patients; set-up: method as in PMID 28580882, PMID 28968163
[3] = system: heavily pretreated patients, HR + /HER2- advanced BC; set-up: method as in PMID 28533223; details: abemaciclib alone, 132 heavily pretreated patients
[4] = system: patients; details: single agent, phase 1 trials
[5] = system: patients in the ribociclib group
[6] = following multiple doses, 600-mg dose group

Compound	Confirmed objective intracranial response [1] [%]	Intracranial clinical benefit rate (CR + PR + SD persisting for ≥ 6 months) [1] [%]	Patients with a decrease in the sum of intracranial target lesions [1] [%]	Grade 3/4 neutropenia [2] [%]	CBR [3] [%]	Confirmed ORR [3] [%]	Median OS [3] [months]	Median PFS [3] [months]	Patients who experienced SD [4]	Patients with dose interruptions or dose reductions due to QTcF increase ([5]; 13 patients) [%]	Patients with increase of more than 60 ms from baseline in the QTcF interval ([5]; 32 of 335 patients in the ribociclib group) [%]	Cmax, geometric mean [range] [6]
CCN1CCN(Cc2ccc(Nc3ncc(F)c(-c4cc(F)c5nc(C)n(C(C)C)c5c4)n3)nc2)CC1 [abemaciclib]	6	25	38	21.1	42.4	19.7	17.7	6.0	–	–	–	–
CC(=O)c1c(C)c2cnc(Nc3ccc(N4CCNCC4)cn3)nc2n(C2CCCC2)c1=O [palbociclib]	–	–	–	–	–	–	–	–	approximately 30%	–	–	–
CN(C)C(=O)c1cc2cnc(Nc3ccc(N4CCNCC4)cn3)nc2n1C1CCCC1 [ribociclib]	–	–	–	–	–	–	–	–	approximately 30%	4	10	1940 [range, 859–5860] ng/ml
